Laboratory results published in patent US20170071922A1, “ARTIFICIAL SKIN” (Shiseido Company, Ltd., priority 2010, published 2017).

System: skin model (EFT-400, MatTeK)
Assay: Electron microscope observation of skin model cultured with MMP inhibitor and/or heparanase inhibitor
Format: cell-based, human
Settings: electron micrographs; result in words
Protocol: A skin model (EFT-400, MatTeK) was cultured in a specialized medium (EFT-400-ASY, MatTeK). Dimethylsulfoxide (DMSO) and ethanol were added to the specialized medium to a final concentration of 0.1% to serve as a control group, 50 mM 1-[4-(1H-benzoimidazol-2-yl)-phenyl]-3-[4-(1H-benzoimidazol-2-yl)-phenyl]-urea (DMSO solvent) was added to the specialized medium to a final concentration of 50 μM to serve as a heparanase inhibitor group, 10 mM N-hydroxy-2-[[(4-methoxyphenyl)sulfonyl] (3-picolyl)amino]-3-methylbutanamide hydrochloride (CGS27023A, ethanol solvent) was added to the specialized medium to a final concentration of 10 μM to serve as an MMP inhibitor group, and 50 mM 1-[4-(1H-benzoimidazol-2-yl)-phenyl]-3-[4-(1H-benzoimidazol-2-yl)-phenyl]-urea (DMSO solvent) and 10 mM CGS27023A (ethanol solvent) were added to the specialized medium to a final concentration of 50 μM and 10 μM, respectively, to serve as a heparanase inhibitor+MMP inhibitor group, followed by culturing.
The aforementioned skin model was cut in half after culturing, fixed with Zamboni's fixative and post-fixed with osmic acid, followed by embedding in resin in accordance with established methods. Tissues were observed by preparing ultra-thin sections and staining with uranyl acetate followed by observing with an electron microscope (JEM-1230, JEOL). […]

Compound	fibroblasts present in dermis directly beneath basement membrane (FIG. 2)
COc1ccc(S(=O)(=O)N(Cc2cccnc2)C(C(=O)NO)C(C)C)cc1.Cl (centres unmarked) [Group A, N-hydroxy-2-[[(4-methoxyphenyl)sulfonyl](3-picolyl)amino]-3-methylbutanamide hydrochloride]	normal fibroblasts
O=C(Nc1ccc(-c2nc3ccccc3[nH]2)cc1)Nc1ccc(-c2nc3ccccc3[nH]2)cc1 [Group B, 1-[4-(1H-benzoimidazol-2-yl)-phenyl]-3-[4-(1H-benzoimidazol-2-yl)-phenyl]-urea]	normal fibroblasts
